Test results published in paper PMC11345841, “Exploring 2-Sulfonylpyrimidine Warheads as Acrylamide Surrogates for Targeted Covalent Inhibition: A BTK Story” (Journal of Medicinal Chemistry, 2024).
Like-named read-outs stand apart in the source and are kept apart here.

What was measured:
Assay in all cases: KINOMEscan ScanTK
Format in all cases: binding
PDGFRA = molecular target: T1, PDGFRA (Homo sapiens, UniProt P16234)
T1 construct: purchased Eurofins DiscoverX KINOMEscan (scanTK)

CTK = molecular target: T2, CTK (Homo sapiens, UniProt P42679)
T2 construct: purchased Eurofins DiscoverX KINOMEscan (scanTK)
T2 sequence (P42679 1-507): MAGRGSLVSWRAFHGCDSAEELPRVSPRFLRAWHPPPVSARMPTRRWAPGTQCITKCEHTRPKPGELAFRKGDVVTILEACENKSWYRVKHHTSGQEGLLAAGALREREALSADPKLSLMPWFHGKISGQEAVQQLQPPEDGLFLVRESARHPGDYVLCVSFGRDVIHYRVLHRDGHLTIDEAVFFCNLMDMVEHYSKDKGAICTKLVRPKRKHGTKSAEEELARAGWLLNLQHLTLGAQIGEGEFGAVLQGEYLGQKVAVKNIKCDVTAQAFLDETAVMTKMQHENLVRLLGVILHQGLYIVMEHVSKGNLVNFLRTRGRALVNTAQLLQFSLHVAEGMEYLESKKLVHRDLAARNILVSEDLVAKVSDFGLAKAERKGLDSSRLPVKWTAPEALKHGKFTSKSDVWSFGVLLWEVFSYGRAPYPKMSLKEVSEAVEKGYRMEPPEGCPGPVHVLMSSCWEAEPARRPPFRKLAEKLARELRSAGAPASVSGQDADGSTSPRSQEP

KIT(V559D) = molecular target: T3, KIT(V559D) (Homo sapiens, UniProt P10721, V559D)
T3 construct: purchased Eurofins DiscoverX KINOMEscan (scanTK)
T3 sequence (P10721 26-976 V559D): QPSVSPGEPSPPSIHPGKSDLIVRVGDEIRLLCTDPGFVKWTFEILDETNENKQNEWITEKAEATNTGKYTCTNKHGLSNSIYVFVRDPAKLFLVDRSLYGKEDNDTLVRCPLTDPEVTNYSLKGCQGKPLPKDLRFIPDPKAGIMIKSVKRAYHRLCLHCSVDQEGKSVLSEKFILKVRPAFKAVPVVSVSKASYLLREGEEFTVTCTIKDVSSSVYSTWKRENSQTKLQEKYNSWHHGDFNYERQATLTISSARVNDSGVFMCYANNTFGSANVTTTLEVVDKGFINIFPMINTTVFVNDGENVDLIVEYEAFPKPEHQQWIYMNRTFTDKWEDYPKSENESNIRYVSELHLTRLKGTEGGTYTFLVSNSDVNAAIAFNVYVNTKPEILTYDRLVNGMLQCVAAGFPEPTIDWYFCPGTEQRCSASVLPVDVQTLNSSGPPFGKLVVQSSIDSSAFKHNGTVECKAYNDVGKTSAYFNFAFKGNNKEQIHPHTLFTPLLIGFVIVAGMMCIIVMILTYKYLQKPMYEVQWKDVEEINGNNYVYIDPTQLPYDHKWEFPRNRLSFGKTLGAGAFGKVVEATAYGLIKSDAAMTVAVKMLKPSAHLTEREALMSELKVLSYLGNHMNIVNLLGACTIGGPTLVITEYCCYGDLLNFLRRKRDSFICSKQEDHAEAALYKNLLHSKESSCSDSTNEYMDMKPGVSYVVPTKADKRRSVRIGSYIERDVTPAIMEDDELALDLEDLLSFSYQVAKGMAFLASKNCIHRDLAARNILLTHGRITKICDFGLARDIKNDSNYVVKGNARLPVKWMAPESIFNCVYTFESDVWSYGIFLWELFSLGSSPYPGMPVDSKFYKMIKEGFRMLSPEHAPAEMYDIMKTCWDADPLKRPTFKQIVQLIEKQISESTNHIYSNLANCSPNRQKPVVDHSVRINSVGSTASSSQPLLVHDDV

[1] = molecular target: T4, ABL1(T315I)-nonphosphorylated (Homo sapiens, UniProt P00519, T315I)
T4 construct: purchased Eurofins DiscoverX KINOMEscan (scanTK)

FLT3(D835Y) = molecular target: T5, FLT3(D835Y) (Homo sapiens, UniProt P36888, D835Y)
T5 construct: purchased Eurofins DiscoverX KINOMEscan (scanTK)
T5 sequence (P36888 27-993 D835Y): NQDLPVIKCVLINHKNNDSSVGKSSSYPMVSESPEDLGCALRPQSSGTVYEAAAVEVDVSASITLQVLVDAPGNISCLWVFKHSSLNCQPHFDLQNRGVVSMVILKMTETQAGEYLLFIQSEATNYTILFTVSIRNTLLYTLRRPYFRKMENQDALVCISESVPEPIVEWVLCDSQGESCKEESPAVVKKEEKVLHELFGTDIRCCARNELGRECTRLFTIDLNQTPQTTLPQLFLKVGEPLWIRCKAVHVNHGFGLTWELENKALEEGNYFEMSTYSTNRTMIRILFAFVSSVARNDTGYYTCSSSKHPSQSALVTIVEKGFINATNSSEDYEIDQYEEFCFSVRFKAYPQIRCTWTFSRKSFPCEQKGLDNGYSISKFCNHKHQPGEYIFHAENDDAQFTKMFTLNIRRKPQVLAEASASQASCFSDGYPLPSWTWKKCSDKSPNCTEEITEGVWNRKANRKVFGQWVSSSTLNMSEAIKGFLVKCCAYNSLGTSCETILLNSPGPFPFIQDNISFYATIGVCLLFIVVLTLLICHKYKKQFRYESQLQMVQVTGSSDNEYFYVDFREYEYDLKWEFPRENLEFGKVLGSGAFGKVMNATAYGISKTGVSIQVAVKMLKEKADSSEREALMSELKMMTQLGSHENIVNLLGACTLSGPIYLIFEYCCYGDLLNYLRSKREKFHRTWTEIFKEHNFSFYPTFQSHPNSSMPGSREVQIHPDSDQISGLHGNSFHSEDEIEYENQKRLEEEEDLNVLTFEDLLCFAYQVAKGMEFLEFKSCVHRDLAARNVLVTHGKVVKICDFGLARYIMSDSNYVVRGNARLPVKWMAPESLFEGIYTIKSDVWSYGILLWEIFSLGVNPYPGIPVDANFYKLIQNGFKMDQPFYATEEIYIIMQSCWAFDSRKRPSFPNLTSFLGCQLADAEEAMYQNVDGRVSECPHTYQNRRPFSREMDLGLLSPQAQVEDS

[2] = molecular target: T6, JAK3(JH1domain-catalytic) (Homo sapiens, UniProt P52333); settings: for difference in %Control from compound Ib at 1 µM / remaining binding at 1 µM: JAK3(JH1domain-catalytic); for inhibition at 1 µM: ScanTK
T6 construct: JAK3(JH1domain-catalytic); purchased Eurofins DiscoverX KINOMEscan (scanTK)
T6 sequence (P52333 822-1124 limits assumed): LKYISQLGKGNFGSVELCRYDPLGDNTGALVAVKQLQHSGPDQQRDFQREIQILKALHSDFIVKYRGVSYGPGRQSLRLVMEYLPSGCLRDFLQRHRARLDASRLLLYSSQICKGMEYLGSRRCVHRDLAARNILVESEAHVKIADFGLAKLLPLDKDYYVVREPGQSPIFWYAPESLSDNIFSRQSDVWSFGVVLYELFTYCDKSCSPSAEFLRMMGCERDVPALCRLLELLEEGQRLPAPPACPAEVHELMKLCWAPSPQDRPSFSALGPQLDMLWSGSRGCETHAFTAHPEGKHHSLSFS

EPHA2 = molecular target: T7, EPHA2 (Homo sapiens, UniProt P29317)
T7 construct: purchased Eurofins DiscoverX KINOMEscan (scanTK)
T7 sequence (P29317 24-976): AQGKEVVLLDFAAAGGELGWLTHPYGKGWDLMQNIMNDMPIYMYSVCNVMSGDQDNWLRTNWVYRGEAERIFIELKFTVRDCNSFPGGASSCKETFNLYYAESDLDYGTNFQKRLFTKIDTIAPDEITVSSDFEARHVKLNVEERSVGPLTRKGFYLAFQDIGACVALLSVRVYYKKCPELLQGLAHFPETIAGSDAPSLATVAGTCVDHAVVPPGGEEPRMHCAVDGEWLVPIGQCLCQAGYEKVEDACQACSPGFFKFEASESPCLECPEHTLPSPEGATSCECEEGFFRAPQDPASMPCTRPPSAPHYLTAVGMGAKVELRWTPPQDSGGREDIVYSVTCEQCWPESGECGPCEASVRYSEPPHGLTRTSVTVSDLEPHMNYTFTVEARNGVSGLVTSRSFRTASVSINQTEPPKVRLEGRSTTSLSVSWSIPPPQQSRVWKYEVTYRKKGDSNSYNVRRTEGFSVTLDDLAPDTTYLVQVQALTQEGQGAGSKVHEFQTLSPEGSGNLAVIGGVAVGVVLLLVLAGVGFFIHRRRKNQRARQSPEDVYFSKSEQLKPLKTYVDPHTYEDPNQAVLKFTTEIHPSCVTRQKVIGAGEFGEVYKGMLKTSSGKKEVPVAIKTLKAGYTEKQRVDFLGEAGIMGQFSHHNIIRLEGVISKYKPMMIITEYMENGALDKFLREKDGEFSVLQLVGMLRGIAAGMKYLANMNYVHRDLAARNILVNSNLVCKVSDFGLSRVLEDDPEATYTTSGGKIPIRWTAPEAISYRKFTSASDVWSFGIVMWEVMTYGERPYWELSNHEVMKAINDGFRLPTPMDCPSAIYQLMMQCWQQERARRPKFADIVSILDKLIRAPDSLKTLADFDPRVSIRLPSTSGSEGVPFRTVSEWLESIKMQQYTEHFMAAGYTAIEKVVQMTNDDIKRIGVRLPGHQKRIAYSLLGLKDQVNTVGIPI

RET(V804L) = molecular target: T8, RET(V804L) (Homo sapiens, UniProt P07949, V804L)
T8 construct: purchased Eurofins DiscoverX KINOMEscan (scanTK)
T8 sequence (P07949 29-1114 V804L): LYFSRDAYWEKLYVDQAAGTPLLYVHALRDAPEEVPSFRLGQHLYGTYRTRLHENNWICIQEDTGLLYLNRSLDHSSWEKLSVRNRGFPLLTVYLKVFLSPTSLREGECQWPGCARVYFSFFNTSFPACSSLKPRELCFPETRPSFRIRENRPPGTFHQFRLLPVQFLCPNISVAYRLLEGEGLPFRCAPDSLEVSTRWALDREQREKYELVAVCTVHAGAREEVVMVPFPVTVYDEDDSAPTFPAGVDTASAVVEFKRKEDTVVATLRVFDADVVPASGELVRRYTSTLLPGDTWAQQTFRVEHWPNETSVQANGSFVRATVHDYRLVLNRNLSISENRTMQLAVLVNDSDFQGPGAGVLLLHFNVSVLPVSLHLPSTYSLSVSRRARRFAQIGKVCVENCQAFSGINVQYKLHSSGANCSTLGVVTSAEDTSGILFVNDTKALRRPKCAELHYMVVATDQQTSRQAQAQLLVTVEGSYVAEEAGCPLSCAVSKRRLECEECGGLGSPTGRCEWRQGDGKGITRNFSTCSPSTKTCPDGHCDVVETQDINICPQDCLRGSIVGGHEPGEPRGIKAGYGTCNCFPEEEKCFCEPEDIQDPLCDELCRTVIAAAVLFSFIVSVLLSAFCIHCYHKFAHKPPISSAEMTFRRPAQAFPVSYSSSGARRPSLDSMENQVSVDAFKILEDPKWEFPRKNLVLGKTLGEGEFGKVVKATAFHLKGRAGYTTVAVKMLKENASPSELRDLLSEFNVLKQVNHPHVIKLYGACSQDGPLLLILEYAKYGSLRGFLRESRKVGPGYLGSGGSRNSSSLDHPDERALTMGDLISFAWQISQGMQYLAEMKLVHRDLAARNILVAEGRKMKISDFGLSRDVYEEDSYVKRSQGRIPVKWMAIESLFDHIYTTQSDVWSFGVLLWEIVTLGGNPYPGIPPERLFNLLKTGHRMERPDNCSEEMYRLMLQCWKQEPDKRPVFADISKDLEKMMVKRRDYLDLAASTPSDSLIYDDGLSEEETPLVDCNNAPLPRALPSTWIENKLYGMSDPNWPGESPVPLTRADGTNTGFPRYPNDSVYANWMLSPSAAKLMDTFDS

T1 sequence (P16234 24-1089): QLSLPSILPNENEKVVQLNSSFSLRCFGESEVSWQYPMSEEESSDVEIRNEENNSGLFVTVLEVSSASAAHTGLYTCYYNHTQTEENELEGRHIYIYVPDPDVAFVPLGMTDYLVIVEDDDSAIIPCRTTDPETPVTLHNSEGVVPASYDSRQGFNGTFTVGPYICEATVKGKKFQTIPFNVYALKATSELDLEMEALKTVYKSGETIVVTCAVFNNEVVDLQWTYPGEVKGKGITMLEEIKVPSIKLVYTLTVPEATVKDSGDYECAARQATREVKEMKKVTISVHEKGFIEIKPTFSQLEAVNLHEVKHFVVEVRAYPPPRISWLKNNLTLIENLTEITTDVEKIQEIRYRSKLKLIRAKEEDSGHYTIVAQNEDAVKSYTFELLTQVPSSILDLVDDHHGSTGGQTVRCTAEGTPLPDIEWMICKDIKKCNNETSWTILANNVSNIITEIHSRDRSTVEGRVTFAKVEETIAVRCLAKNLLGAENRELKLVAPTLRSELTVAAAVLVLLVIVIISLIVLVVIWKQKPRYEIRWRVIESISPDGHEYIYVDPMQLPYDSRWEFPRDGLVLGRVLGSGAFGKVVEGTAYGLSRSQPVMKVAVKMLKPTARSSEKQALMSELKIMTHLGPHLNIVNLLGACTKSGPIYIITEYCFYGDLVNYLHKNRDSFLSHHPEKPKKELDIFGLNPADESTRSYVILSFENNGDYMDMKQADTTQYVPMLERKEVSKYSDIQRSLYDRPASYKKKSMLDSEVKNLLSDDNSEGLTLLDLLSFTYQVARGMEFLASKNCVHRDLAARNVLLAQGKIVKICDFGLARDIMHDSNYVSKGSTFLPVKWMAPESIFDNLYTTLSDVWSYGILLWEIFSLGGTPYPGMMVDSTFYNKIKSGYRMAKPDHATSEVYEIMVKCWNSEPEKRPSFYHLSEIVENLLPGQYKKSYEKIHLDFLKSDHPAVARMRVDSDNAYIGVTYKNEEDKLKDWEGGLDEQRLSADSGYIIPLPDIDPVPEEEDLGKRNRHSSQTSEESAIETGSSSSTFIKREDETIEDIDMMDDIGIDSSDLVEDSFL

Structure (SMILES) | remaining binding at 1 µM (PDGFRA; @1000nM, read-out: %Control) [%] | remaining binding at 1 µM (PDGFRA; read-out: %Control @1000nM) [%] | difference in %Control versus compound Ib at 1 µM (CTK; @1000nM) [%] | remaining binding at 1 µM (CTK; @1000nM, read-out: %Control) [%] | remaining binding at 1 µM (CTK; read-out: %Control @1000nM) [%] | remaining binding at 1 µM (KIT(V559D); @1000nM, read-out: %Control) [%] | remaining binding at 1 µM (KIT(V559D); read-out: %Control @1000nM) [%] | difference in % of control versus compound Ib at 1 µM ([1]; @1000nM) [%] | remaining binding at 1 µM ([1]; @1000nM, read-out: %Control) [%] | remaining binding at 1 µM ([1]; read-out: %Control @1000nM) [%] | difference in %Control versus compound Ib at 1 µM (FLT3(D835Y); @1000nM) [%] | remaining binding at 1 µM (FLT3(D835Y); @1000nM, read-out: %Control) [%] | remaining binding at 1 µM (FLT3(D835Y); read-out: %Control @1000nM) [%] | difference in %Control from compound Ib at 1 µM ([2]; @1000nM) [%] | remaining binding at 1 µM ([2]; @1000nM, read-out: %Control) [%] | remaining binding at 1 µM ([2]; read-out: %Control @1000nM) [%] | inhibition at 1 µM [2] [%] | difference in %Control versus compound Ib at 1 µM (EPHA2; @1000nM) [%] | remaining binding at 1 µM (EPHA2; @1000nM, read-out: %Control) [%] | remaining binding at 1 µM (EPHA2; read-out: %Control @1000nM) [%] | further results
Cc1cnc(S(C)(=O)=O)nc1N1CCCC(n2nc(-c3ccc(Oc4ccccc4)cc3)c3c(N)ncnc32)C1 (centres unmarked) [Compound 8a, 1-(1-(5-Methyl-2-(methylsulfonyl)pyrimidin-4-yl)piperidin-3-yl)-3-(4-phenoxyphenyl)-1H-pyrazolo[3,4-d]pyrimidin-4-amine] | 72 | 72 | -13 | 67 | 67 | 37 | 37 | -11 | 82 | 82 | -4 | 45 | 45 | 94.5 | 100 | 100 | < 1 | -12 | 88 | 88 | remaining binding at 1 µM (RET(V804L); @1000nM, read-out: %Control): 89%; remaining binding at 1 µM (RET(V804L); read-out: %Control @1000nM): 89%
CCOC(=O)c1cnc(S(C)(=O)=O)nc1N1CCC[C@@H](n2nc(-c3ccc(Oc4ccccc4)cc3)c3c(N)ncnc32)C1 [Compound 8c, Ethyl (R)-4-(3-(4-Amino-3-(4-phenoxyphenyl)-1H-pyrazolo[3,4-d]pyrimidin-1-yl)piperidin-1-yl)-2-(methylsulfonyl)pyrimidine-5-carboxylate] | 91 | 91 | -6 | 74 | 74 | 70 | 70 | -9 | 84 | 84 | 50 | 99 | 99 | 94.5 | 100 | 100 | < 1 | -2 | 98 | 98 | remaining binding at 1 µM (RET(V804L); @1000nM, read-out: %Control): 100%; remaining binding at 1 µM (RET(V804L); read-out: %Control @1000nM): 100%
COC(=O)c1cnc(S(C)(=O)=O)nc1N1CCCC(n2nc(-c3ccc(Oc4ccccc4)cc3)c3c(N)ncnc32)C1 (centres unmarked) [Compound 8b, Methyl 4-(3-(4-Amino-3-(4-phenoxyphenyl)-1H-pyrazolo[3,4-d]pyrimidin-1-yl)piperidin-1-yl)-2-(methylsulfonyl)pyrimidine-5-carboxylate] | 90 | 90 | 8 | 88 | 88 | 75 | 75 | -17 | 76 | 76 | 18 | 67 | 67 | 94.5 | 100 | 100 | < 1 | -1 | 99 | 99 | remaining binding at 1 µM (RET(V804L); @1000nM, read-out: %Control): 90%; remaining binding at 1 µM (RET(V804L); read-out: %Control @1000nM): 90%
CNC(=O)c1cnc(S(C)(=O)=O)nc1N1CCCC(n2nc(-c3ccc(Oc4ccccc4)cc3)c3c(N)ncnc32)C1 (centres unmarked) [Compound 8d, 4-(3-(4-Amino-3-(4-phenoxyphenyl)-1H-pyrazolo[3,4-d]pyrimidin-1-yl)piperidin-1-yl)-N-methyl-2-(methylsulfonyl)pyrimidine-5-carboxamide] | 78 | 78 | -3 | 77 | 77 | 60 | 60 | -16 | 77 | 77 | 10 | 59 | 59 | 67.5 | 73 | 73 | 27 | -2 | 98 | 98 | remaining binding at 1 µM (RET(V804L); @1000nM, read-out: %Control): 93%; remaining binding at 1 µM (RET(V804L); read-out: %Control @1000nM): 93%
C=CC(=O)N1CCC[C@@H](n2nc(-c3ccc(Oc4ccccc4)cc3)c3c(N)ncnc32)C1 [Compound 1g, Ibrutinib, reference compound] | 49 | 49 |  | 80 | 80 | 27 | 27 |  | 93 | 93 |  |  |  |  | 5.5 | 5.5 | 95 |  | 100 | 100 | 
